{
  "source": "patent US20030124105A1",
  "about": "“PROGRAMMED CELL DEATH GENES AND PROTEINS” (priority 1993, published 2003)",
  "key": {"HeLa cells": {"system": "HeLa cells", "type": "cell-based, human"}, "HeLa/crmA cells": {"system": "HeLa/crmA cells", "conditions": "CHX 20 μg/ml, TNF-a 5 ng/ml, 24 h, trypan blue dye exclusion, mean ± SEM", "protocol": "Dosage response of HeLa and HeLa/crmA cells to TNF-α treatment was tested as follows. Cells were seeded in DMEM plus 10% fetal calf serum in a 24-well plate at a density of 4×10^4 cells per well. After overnight incubation, the cells were washed twice with serum-free DMEM. Drugs were then added to a total volume of 0.2 ml of serum-free DMEM and the cells were incubated for 24 hours. Cells were then trypsinized and dead cells scored on a hemocytometer by trypan blue exclusion (Sigma, St. Louis, Mo.). At least 200 cells were scored per well. Each concentration was tested in duplicate each time.\nThe effect of crmA expression on TNF-induced apoptosis was tested. […] HeLa cells or HeLa/crmA cells were treated with cycloheximide (CHX) (20 μg/ml, Sigma), TNF-α (5 ng/ml, Sigma), or a combination of both drugs. […] Control HeLa and HeLa/crmA cells were tested for the ability to resist increasing amounts of TNF-α in the presence of 10 μg/ml CHX (FIG. 18). […] The dose response of crmA-expressing HeLa cells to increasing amounts of TNF-α in the presence of 10 μg/ml of CHX was tested."}},
  "data": [
    {"smiles": "C[C@@H]1C[C@@H]([C@H](O)CC2CC(=O)NC(=O)C2)C(=O)[C@@H](C)C1", "note": "[CHX, cycloheximide]", "values": [
      {"measurement": "% dead cells", "setting": "HeLa cells", "result": "2.9 ± 0.7", "unit": "%"},
      {"measurement": "% dead cells", "setting": "HeLa/crmA cells", "result": "3.8 ± 0.5", "unit": "%"}
    ]}
  ]
}
